Reference: patent US20130143835A1, “HCV Polymerase Inhibitors” (MEDIVIR AB, priority 2011, published 2013)

Experiments:
[1] = target: T1, HCV NS5B-21 (Hepatitis C virus genotype 1b, UniProt Q9WMX2); experiment: HCV NS5B-21 enzyme assay (SPA, 3H-ATP incorporation); type: biochemical; conditions: HCV NS5B-21 SPA enzyme assay, triphosphate tested
T1 construct: HCV NS5B-21 (21-aminoacid C-terminally truncated version); purchased Replizyme
Procedure: It is this triphosphate which is believed to be the antivirally active species. The enzyme assay described here example may be used to confirm that compounds of the invention are antivirally active as the 5′-triphosphate metabolite.
The enzyme assay measures the inhibitory effect of triphosphate compounds in an HCV NS5B-21 (21-aminoacid C-terminally truncated version) SPA assay (scintillation proximity assay). The assay is performed by evaluating the amount of radiolabelled ATP incorporated by HCV NS5B-21 into newly synthesized RNA using an heterogeneous biotinylated RNA template.
To determine IC50 values the compounds are tested at various concentrations in a final volume of 100 μl of reaction mixture. The reaction is stopped by addition of 0.5M EDTA solution. The samples are transferred into flashplates precoated with streptavidin. The incorporated radioactivity is quantified using a scintillation counter (Wallac Microbeta Trilux).
The assay should include enzyme controls (about four, containing 1 μl DMSO instead of inhibitor) and background control containing all ingredients except template.
Compounds are serially diluted in DMSO on a separate dilution plate to 100× the final desired assay concentrations. […]
Incubate the plate over night and read the flash plate in the Microbeta Trilux using the protocol Flash plates H3. […]
IC50 is determined using Graphpad Prism. […]

[2] = test system: HCV type 1b replicon in Huh-7 luc/neo (Huh-Luc) cells; experiment: HCV replicon assay (Huh-Luc cells, luciferase read-out); type: cell-based; conditions: inhibition of HCV replication, three days incubation, luciferase activity
Description: The in vitro antiviral activity against HCV of the compounds of formula I can be tested in a cellular HCV replicon system based on Lohmann et al. (1999) Science 285:110-113, with the further modifications described by Krieger et al. (2001) Journal of Virology 75: 4614-4624 (incorporated herein by reference), which is further exemplified in the examples section. This model, while not a complete infection model for HCV, is widely accepted as the most robust and efficient model of autonomous HCV RNA replication currently available. It will be appreciated that it is important to distinguish between compounds that specifically interfere with HCV functions from those that exert cytotoxic or cytostatic effects in the HCV replicon model, and as a consequence cause a decrease in HCV RNA or linked reporter enzyme concentration. Assays are known in the field for the evaluation of cellular cytotoxicity based for example on the activity of mitochondrial enzymes using fluorogenic redox dyes such as resazurin. Furthermore, cellular counter screens exist for the evaluation of non-selective inhibition of linked reporter gene activity, such as firefly luciferase. Appropriate cell types can be equipped by stable transfection with a luciferase reporter gene whose expression is dependent on a constitutively active gene promoter, and such cells can be used as a counter-screen to eliminate non-selective inhibitors.
The compounds of formula I may be examined for activity in the inhibition of HCV RNA replication in a cellular assay aimed at identifying compounds that inhibit a HCV functional cellular replicating cell line, also known as HCV replicons. A suitable cellular assay is based on a bicistronic expression construct, as described by Lohmann et al. (1999), Science vol. 285 pp. 110-113 with modifications described by Krieger et al. (2001), Journal of Virology 75: 4614-4624, in a multi-target screening strategy.
The assay utilizes the stably transfected cell line Huh-7 luc/neo (hereafter referred to as Huh-Luc). This cell line harbors an RNA encoding a bicistronic expression construct comprising the wild type NS3-NS5B regions of HCV type 1b translated from an Internal Ribosome Entry Site (IRES) from encephalomyocarditis virus (EMCV), preceded by a reporter portion (FfL-luciferase), and a selectable marker portion (neo^R, neomycine phosphotransferase). The construct is bordered by 5′ and 3′ NTRs (non-translated regions) from HCV type 1b. Continued culture of the replicon cells in the presence of G418 (neo^R) is dependent on the replication of the HCV RNA. The stably transfected replicon cells that express HCV RNA, which replicates autonomously and to high levels, encoding inter alia luciferase, are used for screening the antiviral compounds.
The replicon cells are plated in 384 well plates in the presence of the test and control compounds which are added in various concentrations. Following an incubation of three days, HCV replication is measured by assaying luciferase activity (using standard luciferase assay substrates and reagents and a Perkin Elmer ViewLux™ ultraHTS microplate imager). Replicon cells in the control cultures have high luciferase expression in the absence of any inhibitor. The inhibitory activity of a compound on luciferase activity is monitored on the Huh-Luc cells, enabling a dose-response curve for each test compound. EC50 values are then calculated, which value represents the amount of the compound required to decrease the level of detected luciferase activity by 50%, or more specifically, the ability of the genetically linked HCV replicon RNA to replicate.

## C[C@@]1(N)[C@H](O)[C@@H](COP(=O)(O)OP(=O)(O)OP(=O)(O)O)O[C@H]1n1ccc(=O)[nH]c1=O [Example 3, potassium ((2R,3S,4R,5R)-4-amino-5-(2,4-dioxo-3,4-dihydropyrimidin-1(2H)-yl)-3-hydroxy-4-methyltetrahydrofuran-2-yl)methyl triphosphate]
[1]
  IC50: 13 µM

## C[C@H](NP(=O)(OC[C@H]1O[C@@H](n2ccc(=O)[nH]c2=O)[C@](C)(N)[C@@H]1O)Oc1ccccc1)C(=O)OC1CCCCCCC1 (single isomer, unassigned) [Example 10B]
[2]
  EC50: 0.29 µM

## CC[C@@H](C)OC(=O)[C@H](C)NP(=O)(OC[C@H]1O[C@@H](n2ccc(=O)[nH]c2=O)[C@](C)(N)[C@@H]1O)Oc1ccccc1 (single isomer, unassigned) [Example 21B]
[2]
  EC50: 0.74 µM

## CC[C@@H](C)OC(=O)[C@H](C)NP(=O)(OC[C@H]1O[C@@H](n2ccc(=O)[nH]c2=O)[C@](C)(N)[C@@H]1O)Oc1ccccc1 (single isomer, unassigned) [Example 22B]
[2]
  EC50: 0.66 µM

## C[C@H](NP(=O)(OC[C@H]1O[C@@H](n2ccc(=O)[nH]c2=O)[C@](C)(N)[C@@H]1O)Oc1ccccc1)C(=O)OCc1ccccc1 (single isomer, unassigned) [Example 15B]
[2]
  EC50: 0.66 µM

## CC[C@@H](C)OC(=O)[C@H](C)NP(=O)(OC[C@H]1O[C@@H](n2ccc(=O)[nH]c2=O)[C@](C)(N)[C@@H]1O)Oc1ccccc1 (single isomer, unassigned) [Example 21A]
[2]
  EC50: 5.1 µM

## C[C@H](NP(=O)(OC[C@H]1O[C@@H](n2ccc(=O)[nH]c2=O)[C@](C)(N)[C@@H]1O)Oc1ccccc1)C(=O)OCCC(C)(C)C (single isomer, unassigned) [Example 6A]
[2]
  EC50: 2.3 µM

## C[C@H](NP(=O)(OC[C@H]1O[C@@H](n2ccc(=O)[nH]c2=O)[C@](C)(N)[C@@H]1O)Oc1ccccc1)C(=O)OCC1CC1 (single isomer, unassigned) [Example 26A]
[2]
  EC50: 1.7 µM

## C[C@H](NP(=O)(OC[C@H]1O[C@@H](n2ccc(=O)[nH]c2=O)[C@](C)(N)[C@@H]1O)Oc1ccccc1)C(=O)OCC(C)(C)C (single isomer, unassigned) [Example 13B]
[2]
  EC50: 0.3 µM

## CCCCCOC(=O)[C@H](C)NP(=O)(OC[C@H]1O[C@@H](n2ccc(=O)[nH]c2=O)[C@](C)(N)[C@@H]1O)Oc1ccccc1 (single isomer, unassigned) [Example 18A]
[2]
  EC50: 1.8 µM

## CCCOC(=O)[C@H](C)NP(=O)(OC[C@H]1O[C@@H](n2ccc(=O)[nH]c2=O)[C@](C)(N)[C@@H]1O)Oc1ccccc1 (single isomer, unassigned) [Example 24B]
[2]
  EC50: 1.5 µM

## C[C@@]1(N)[C@H](O)[C@@H](CO)O[C@H]1n1ccc(=O)[nH]c1=O [Example 1, 1-((2R,3R,4S,5R)-3-amino-4-hydroxy-5-(hydroxymethyl)-3-methyltetrahydrofuran-2-yl)pyrimidine-2,4(1H,3H)-dione]
[2]; Hepatitis C virus, Huh-7, 72 h
  EC50: > 50 µM

## CCOC(=O)[C@H](C)NP(=O)(OC[C@H]1O[C@@H](n2ccc(=O)[nH]c2=O)[C@](C)(N)[C@@H]1O)Oc1ccccc1 (single isomer, unassigned) [Example 11B]
[2]
  EC50: 0.98 µM

## COC(=O)[C@H](C)NP(=O)(OC[C@H]1O[C@@H](n2ccc(=O)[nH]c2=O)[C@](C)(N)[C@@H]1O)Oc1ccccc1 (single isomer, unassigned) [Example 16A]
[2]
  EC50: 5.1 µM

## C[C@H](NP(=O)(OC[C@H]1O[C@@H](n2ccc(=O)[nH]c2=O)[C@](C)(N)[C@@H]1O)Oc1ccccc1)C(=O)OCCC(C)(C)C (single isomer, unassigned) [Example 6B]
[2]
  EC50: 0.49 µM
